Measured values: patent publication US12180204B1, “2-(benzo[d]thiazol-2-yl)-N′-(2-(5-phenyl-1,3,4-oxadiazol-2-ylthio)acetoxy)acetimidamide as an antimicrobial compound” (priority 2023, dated 2024)

System: Bacillus cereus, Staphylococcus aureus, Pseudomonas aeruginosa, Escherichia coli, Aspergillus flavus, Chrysosporium keratinophilum
Assay: Agar plate disc-diffusion antimicrobial test
Format: cell-based
Conditions: disc wetted with 10 μL of 10 mg/mL in DMSO; 37° C., 48 h, 72 h for fungi; DMSO control zone subtracted
Protocol: The agar plate disc-diffusion method was applied. Sterilized filter papers (6 mm in diameter) were wetted with 10 μL of a solution of 2-(benzo[d]thiazol-2-yl)-N′-(2-(5-phenyl-1,3,4-oxadiazol-2-ylthio)acetoxy)acetimidamide (3) to be tested, containing 10 mg/mL in DMSO, and the discs were allowed to air dry. The discs were then placed onto the surface of agar plates (nutrient agar for bacteria and Sabouraud's dextrose agar for fungi) seeded with the test organism. Each plate contained 15 mL of the agar medium, previously seeded with 0.2 mL of the broth culture of each organism pregrown for 18 hours. The plates were incubated at 37° C. for 48 h, and 72 h for fungi. The inhibition zones were measured in mm. Discs impregnated with DMSO were used as a control, and its inhibition zone was subtracted from the tested compound actual inhibition zone. […] The antibacterial activity was screened against gram positive bacteria namely Bacillus cereus and Staphylococcus aureus and gram-negative bacterial strains namely Pseudomonas aeruginosa and Escherichia coli, while the antifungal activity was screened against Aspergillus flavus and Chrysosporium keratinophilum.

N/C(Cc1nc2ccccc2s1)=N\OC(=O)CSc1nnc(-c2ccccc2)o1 [compound 3, 2-(benzo[d]thiazol-2-yl)-N′-(2-(5-phenyl-1,3,4-oxadiazol-2-ylthio)acetoxy)acetimidamide]
antimicrobial activities (inhibition zones): high antimicrobial activities
